# Measured values: ChEMBL document CHEMBL4613257, “Advanced Glycation End Product Inhibition by Alkaloids from Ocotea paranapiacabensis for the Prevention of Skin Aging” (2020)
# Tests used:
# Format in all cases: functional
# Zone of skin [1] = test: Anti-aging activity in reconstructed human skin assessed as dermis contraction at 150 uM by hematoxylin and eosin staining-based microscopic analysis (reference value: 57.4%)
# [2] = Anti-glycation activity assessed as inhibition of AGE formation at 150 uM incubated for 3 days in presence of BSA and MGO by fluorescence based assay relative to control; parameters: scale not given: the % may be the effect or the level left
# [3] = Anti-glycation activity assessed as inhibition of AGE formation at 10 mM incubated for 3 days in presence of BSA and MGO by fluorescence based assay relative to control; parameters: scale not given: the % may be the effect or the level left
# Zone of skin [4] = test: Anti-aging activity in reconstructed human skin assessed as dermis contraction at 10 mM by hematoxylin and eosin staining-based microscopic analysis (reference value: 57.4%)
Structure (SMILES),Activity (Zone of skin [1]) [%],Activity [2] [%],Activity [3] [%],Activity (Zone of skin [4]) [%]
CN1CCc2cc(O)c(O)cc2C1Cc1ccc(O)cc1 (stereo not drawn),4.2,98.2,,
C[N+]1(C)CCc2cc(O)c(O)cc2C1Cc1ccc(O)cc1 (stereo not drawn),8.7,61.5 to 63,,
C[N+]1(C)C=Cc2cc(O)c(O)cc2C1Cc1ccc(O)cc1 (stereo not drawn),,83.3,,
N=C(N)NN [PIMAGEDINE],,,92.2,49.7
COc1cc2c(cc1O)C(Cc1ccc(O)cc1)[N+](C)(C)CC2 (stereo not drawn),,26.1,,
